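Following 48 hours of exposure in 96-well plates, responses at five concentrations were used to interpolate endpoints linearly. Here, GI50 denotes the concentration required for 50% inhibition of growth.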 Calls of active or inactive are those of the source. No stated cut-off is given here; in the data, active = GI50 up to about 1.1 µM and inactive = higher.
How the values were obtained:
Experiment in all cases: NCI tumour cell line growth inhibition, 48 h
HL-60 = system: HL-60
HT-29 = system: HT-29
K562 = system: K562
RPMI-8226 = system: RPMI-8226
Malme-3M = system: Malme-3M
UACC-257 = system: UACC-257
MDA-MB-435 = system: MDA-MB-435
MCF7 = system: MCF7
IGROV-1 = system: IGROV-1
SK-MEL-2 = system: SK-MEL-2
KM12 = system: KM12
SF-539 = system: SF-539
MOLT-4 = system: MOLT-4
SK-MEL-5 = system: SK-MEL-5
SF-268 = system: SF-268
ACHN = system: ACHN
SK-OV-3 = system: SK-OV-3
SR = system: SR
NCI-H460 = system: NCI-H460
HCC 2998 = system: HCC 2998

SMILES | GI50 (HL-60) | GI50 (HT-29) | GI50 (K562) | GI50 (RPMI-8226) | GI50 (Malme-3M) | GI50 (UACC-257) | GI50 (MDA-MB-435) | GI50 (MCF7) | GI50 (IGROV-1) | GI50 (SK-MEL-2) | GI50 (KM12) | GI50 (SF-539) | GI50 (MOLT-4) | GI50 (SK-MEL-5) | GI50 (SF-268) | GI50 (ACHN) | GI50 (SK-OV-3) | GI50 (SR) | GI50 (NCI-H460) | GI50 (HCC 2998)
C[n+]1cccc2ccc(OC(=O)c3ccccc3)cc21 | > 10 µM (inactive) | > 100 µM (inactive) | > 100 µM (inactive) | > 100 µM (inactive) | > 100 µM (inactive) | > 100 µM (inactive) | > 100 µM (inactive) | > 100 µM (inactive) | > 100 µM (inactive) | > 100 µM (inactive) | > 100 µM (inactive) | > 100 µM (inactive) | > 100 µM (inactive) | > 100 µM (inactive) | > 100 µM (inactive) | > 100 µM (inactive) | > 100 µM (inactive) |  |  | 
COc1ccc(/C=N/NC(=S)Nc2cc(C)ccc2OC)cc1 | 20.3 µM (inactive) | 10.1 µM (inactive) | 0.63 µM (active) | 11.1 µM (inactive) | 25.8 µM (inactive) |  | 25.6 µM (inactive) | 22.9 µM (inactive) | 33.5 µM (inactive) | 19.8 µM (inactive) | 31.7 µM (inactive) | 24.5 µM (inactive) | 9.98 µM (inactive) | 15.6 µM (inactive) | 48.9 µM (inactive) | 37.2 µM (inactive) | 51.8 µM (inactive) | 9.08 µM (inactive) |  | 
COc1ccc(-c2cc(-c3ccccc3)c3c(n2)-c2ccccc2NC(=O)C3)cc1 | > 100 µM (inactive) | 12.1 µM (inactive) | 1.47 µM (inactive) | > 100 µM (inactive) | 17.4 µM (inactive) | > 100 µM (inactive) | > 100 µM (inactive) | 39.4 µM (inactive) | 13.8 µM (inactive) | 32.7 µM (inactive) | 35.4 µM (inactive) | > 100 µM (inactive) |  | 23.8 µM (inactive) | 23.7 µM (inactive) | 35.1 µM (inactive) | 39.9 µM (inactive) |  | 25.9 µM (inactive) | 53 µM (inactive)
Clc1ccc(C2ON=C(c3ccccc3)N2C23CC4CC(CC(C4)C2)C3)c(Cl)c1 (stereo unspecified) |  | > 10 µM (inactive) | > 10 µM (inactive) | > 10 µM (inactive) | > 10 µM (inactive) | > 10 µM (inactive) | > 10 µM (inactive) | > 10 µM (inactive) | > 10 µM (inactive) | > 10 µM (inactive) | > 10 µM (inactive) | > 10 µM (inactive) | > 10 µM (inactive) | > 10 µM (inactive) | > 10 µM (inactive) | > 10 µM (inactive) | > 10 µM (inactive) |  | > 10 µM (inactive) | > 10 µM (inactive)
CC1(C)OC[C@@H]([C@H](C=O)OCc2ccccc2)O1 |  | > 100 µM (inactive) | > 100 µM (inactive) | > 100 µM (inactive) | > 100 µM (inactive) | > 100 µM (inactive) | > 100 µM (inactive) | > 100 µM (inactive) | > 100 µM (inactive) | > 100 µM (inactive) | > 100 µM (inactive) |  | > 100 µM (inactive) | > 100 µM (inactive) | > 100 µM (inactive) | > 100 µM (inactive) | > 100 µM (inactive) | > 100 µM (inactive) |  | 
N#CC(C#N)=CNC(=S)Nc1ccc(S(=O)(=O)Nc2nccs2)cc1 | > 100 µM (inactive) | > 100 µM (inactive) |  |  |  | > 100 µM (inactive) | > 100 µM (inactive) | > 100 µM (inactive) | > 100 µM (inactive) | > 100 µM (inactive) | > 100 µM (inactive) | > 100 µM (inactive) | > 100 µM (inactive) | > 100 µM (inactive) | > 100 µM (inactive) | > 100 µM (inactive) | > 100 µM (inactive) |  | > 100 µM (inactive) | > 100 µM (inactive)
CSc1ccc(/C=C2\N=C(c3ccccc3)N(c3nc4ccc(Sc5ccccc5)cc4[nH]3)C2=O)cc1 | 14.2 µM (inactive) | 17.5 µM (inactive) | 14 µM (inactive) | 20.2 µM (inactive) | 16.6 µM (inactive) | 13.9 µM (inactive) | 5.28 µM (inactive) | 15.1 µM (inactive) | 36.5 µM (inactive) | 13 µM (inactive) | 15.3 µM (inactive) |  | 22.3 µM (inactive) | 13.3 µM (inactive) | 27.6 µM (inactive) | 30.8 µM (inactive) | 14.7 µM (inactive) |  | 19.1 µM (inactive) | 16.7 µM (inactive)
Cc1nc(/C(=N\n2cnnc2)Nc2ccc(Br)cc2)no1 |  | > 100 µM (inactive) | 57.1 µM (inactive) | > 100 µM (inactive) | > 100 µM (inactive) | > 100 µM (inactive) | > 100 µM (inactive) | > 100 µM (inactive) | > 100 µM (inactive) | > 100 µM (inactive) | > 100 µM (inactive) |  | > 100 µM (inactive) | > 100 µM (inactive) |  | > 100 µM (inactive) | > 100 µM (inactive) |  | > 100 µM (inactive) | > 100 µM (inactive)
